In PubChem BioAssay (NCI):
Values joined by “and” are separate entries in the source; they are usually repeats but may differ in a detail not shown here. Identical values can stand only once.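 The compound was tested at five concentrations on cells cultured in 96-well plates, with a 48-hour exposure period. GI50 marks 50% less growth. TGI is the concentration that stops growth completely.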

What was measured:
Test in all cases: NCI tumour cell line growth inhibition, 48 h
SK-MEL-28 melanoma = system: SK-MEL-28 melanoma
PC-3 prostate = system: PC-3 prostate
HOP-62 NSCLC = system: HOP-62 NSCLC
RXF 393 renal = system: RXF 393 renal
TK-10 renal = system: TK-10 renal
CAKI-1 renal = system: CAKI-1 renal
SNB-19 CNS = system: SNB-19 CNS
U251 CNS = system: U251 CNS
SK-MEL-5 melanoma = system: SK-MEL-5 melanoma
UACC-62 melanoma = system: UACC-62 melanoma

| Compound | TGI (SK-MEL-28 melanoma) | TGI (PC-3 prostate) | TGI (HOP-62 NSCLC) | TGI (RXF 393 renal) | TGI (TK-10 renal) | TGI (CAKI-1 renal) | TGI (SNB-19 CNS) | TGI (U251 CNS) | TGI (SK-MEL-5 melanoma) | TGI (UACC-62 melanoma) | GI50 (SK-MEL-28 melanoma) | GI50 (PC-3 prostate) | GI50 (HOP-62 NSCLC) | GI50 (TK-10 renal) | GI50 (CAKI-1 renal) | GI50 (SNB-19 CNS) | GI50 (U251 CNS) | GI50 (RXF 393 renal) | GI50 (SK-MEL-5 melanoma) | GI50 (UACC-62 melanoma) |
| --- | --- | --- | --- | --- | --- | --- | --- | --- | --- | --- | --- | --- | --- | --- | --- | --- | --- | --- | --- | --- |
| CN1C(=O)[C@](C)(Cc2ccc(F)cc2)N(C(=O)OC(C)(C)C)[C@@H]1C(C)(C)C | > 100 µM | > 100 µM | > 100 µM | 59.9 µM | > 100 µM | > 100 µM | > 100 µM | > 100 µM | 37.6 µM | > 100 µM | – | – | – | – | – | – | – | – | – | – |
| CC1CC/C(=C\c2ccc(F)cc2)C2=C1C(c1ccc(F)cc1)NC(=S)N2 (stereo not drawn) | > 100 µM | > 100 µM | – | > 100 µM | > 100 µM | > 100 µM | > 100 µM | > 100 µM | > 100 µM | > 100 µM | – | – | – | – | – | – | – | – | – | – |
| COc1ccc(C(OCC2OC(n3ccc(Oc4c(F)c(F)c(F)c(F)c4F)nc3=O)CC2OP(OCCC#N)N(C(C)C)C(C)C)(c2ccccc2)c2ccc(OC)cc2)cc1 (stereo not drawn) | > 100 µM | > 100 µM | > 100 µM | > 100 µM | > 100 µM | > 100 µM | > 100 µM | > 100 µM | > 100 µM | > 100 µM | – | – | – | – | – | – | – | – | – | – |
| Cc1cc(S(=O)(=O)Nc2n[nH]c(N)n2)c(S)cc1Cl | > 10 µM | > 10 µM | > 10 µM | > 10 µM | > 10 µM | > 10 µM | > 10 µM | > 10 µM | > 10 µM | > 10 µM | – | – | – | – | – | – | – | – | – | – |
| O=C(Nc1ccccc1C(=O)O)C(=Cc1ccccc1O)NC(=O)c1ccccc1 | > 100 µM | > 100 µM | > 100 µM | > 100 µM | – | > 100 µM | > 100 µM | > 100 µM | > 100 µM | > 100 µM | – | – | – | – | – | – | – | – | – | – |
| Cc1cc(=O)oc2c(CN(CCCl)CCCl)c(O)ccc12 | > 100 µM | > 100 µM | > 100 µM | > 100 µM | – | > 100 µM | > 100 µM | > 100 µM | > 100 µM | 71.2 µM | – | – | – | – | – | – | – | – | – | – |
| CCOC(=O)CCN1C(=O)c2c(NC(=O)C(=O)O)cccc2S1(=O)=O | > 100 µM | > 100 µM | > 100 µM | > 100 µM | > 100 µM | > 100 µM | > 100 µM | > 100 µM | – | > 100 µM | – | – | – | – | – | – | – | – | – | – |
| COc1cc2c3c4[n+](cc2c(OC)c1OC)CCC4CCC3 (stereo not drawn) | > 100 µM | > 100 µM | > 100 µM | > 100 µM | > 100 µM | > 100 µM | > 100 µM | > 100 µM | > 53.3 µM | > 100 µM | – | – | – | – | – | – | – | – | – | – |
| COc1ccc(-c2nc3ncccn3c2-c2ccc(S(C)(=O)=O)cc2)cc1 | > 100 µM | > 100 µM | > 100 µM | – | – | 68.7 µM | > 100 µM | > 100 µM | > 100 µM | > 100 µM | – | – | – | – | – | – | – | – | – | – |
| O=c1[nH]c(=O)c2c([nH]1)[nH]c1ccccc12 | – | – | > 100 µM | > 100 µM | > 100 µM | > 100 µM | > 100 µM | – | > 100 µM | > 100 µM | – | – | – | – | – | – | – | – | – | – |
| N#CC(NNC(=O)c1c(Cl)c(Cl)c(Cl)c(Cl)c1-c1nc2ccc(C(=O)c3ccccc3)cc2[nH]1)c1cccc(Oc2ccccc2)c1 (stereo not drawn) | 74.1 µM | 54 µM | 70.2 µM | 55.5 µM | 95.1 µM | > 100 µM | 90 µM | > 100 µM | 38.5 µM | – | – | – | – | – | – | – | – | – | – | – |
| Oc1[nH]c2ccccc2c1N=NC(=S)NCc1ccccn1 | 21.5 µM | 17.5 µM | 6.87 µM | – | 18.3 µM | 11.7 µM | 15.2 µM | 6.22 µM | 12 µM | 2.6 µM | – | – | – | – | – | – | – | – | – | – |
| COc1ccc(Nc2ccnc3cc(Cl)ccc23)cc1CN(CCCl)CCCl | 14.9 µM | > 100 µM | 4.01 µM | – | > 20.7 µM | 0.933 µM | – | > 100 µM | – | – | 3.59 µM | 2.05 µM | 1.37 µM | 2.02 µM | 0.262 µM | 1.5 µM | 1.79 µM | – | – | – |
| H-KIFKKFKTIIKKVWRIFGRF-NH2 | 5.02 µM | – | – | 5.19 µM | – | – | – | – | 5.8 µM | 4.92 µM | 2.21 µM | – | – | – | – | – | – | 2.09 µM | 2.3 µM | 2.03 µM |
| NC(=O)c1nnc2c(F)cccc2c1N | – | > 100 µM | > 100 µM | – | > 100 µM | > 100 µM | > 100 µM | > 100 µM | > 100 µM | > 100 µM | – | – | – | – | – | – | – | – | – | – |
| O=c1cc(-c2ccccc2)[nH]c2c(F)ccc(F)c12 | > 100 µM | – | > 100 µM | > 100 µM | > 100 µM | > 100 µM | – | > 100 µM | > 100 µM | > 100 µM | – | – | – | – | – | – | – | – | – | – |
| COC1OC(=O)C(OC)C(OC)C1OC (stereo not drawn) | > 100 µM | > 100 µM | > 100 µM | – | > 100 µM | > 100 µM | > 100 µM | > 100 µM | > 100 µM | > 100 µM | – | – | – | – | – | – | – | – | – | – |
| CN1CCN(C2CC(=O)c3c(Cl)sc(Cl)c32)CC1 (stereo not drawn) | 20.2 µM | > 100 µM | 42.6 µM | – | > 61 µM | 39.6 µM | > 100 µM | 36 µM | > 56.4 µM | 34.1 µM | – | – | – | – | – | – | – | – | – | – |
| COc1cccc2c1C(=O)c1c(O)c3c(c(O)c1C2=O)C[C@@](O)(C(=O)CO)CC3OC1CC(NCCCCC(OC(C)=O)OC(C)=O)C(O)C(C)O1 (stereo partly drawn) | – | – | – | 0.00356 µM and 0.00642 µM | > 1 µM | 0.00812 µM | > 1 µM | – | 0.00341 µM | 0.00374 µM and 0.00228 µM | – | – | 0.00248 µM | – | – | – | 0.00266 µM | 0.00269 µM | 0.00152 µM | 0.000655 µM |
| CC(C)(C)C1=CC(O)(c2c3ccccc3c(C3(O)C=C(C(C)(C)C)C(=O)C(C(C)(C)C)=C3)c3ccccc23)C=C(C(C)(C)C)C1=O | > 100 µM | > 100 µM | > 100 µM | – | > 100 µM | > 100 µM | > 100 µM | > 100 µM | > 100 µM | > 100 µM | – | – | – | – | – | – | – | – | – | – |
| N#Cc1nc(C(=O)c2ccccc2)oc1N | > 100 µM | > 100 µM | > 100 µM | – | > 100 µM | > 100 µM | > 100 µM | > 100 µM | > 100 µM | > 100 µM | – | – | – | – | – | – | – | – | – | – |
